{
  "source": "patent US9499550B2",
  "about": "(BRISTOL-MYERS SQUIBB COMPANY, priority 2012, dated 2016)",
  "key": {"[1]": {"system": "HCV genotype 1b (Con1) replicon in HUH-7 cells", "assay": "HCV replicon luciferase reporter assay, genotype 1b", "assay_type": "cell-based", "settings": "3 days incubation", "from_the_text": "(§1) Generation of HCV Replicon\nAn HCV replicon whole cell system was established as described by Lohmann V, Korner F, Koch J, Herian U, Theilmann L, Bartenschlager R., Science 285(5424):110-3 (1999) and modified to introduce a luciferase reporter, as first described by Krieger et al (Krieger N, Lohmann V, and Bartenschlager R, J. Virol. 75(10):4614-4624 (2001)). CDNA encoding a humanized form of the Renilla luciferase gene and a linker sequence fused directly to the 3′-end of the luciferase gene were introduced into the replicon construct using an Asc1 restriction site located in core, directly upstream of the neomycin marker gene. The adaptive mutation at position 1179 (serine to isoleucine) was also introduced (Blight K J, Kolykhalov, A A, Rice, C M, Science 290(5498):1972-1974). A stable cell line constitutively expressing this HCV replicon construct was generated by first linearizing plasmid DNAs with ScaI. RNA transcripts were synthesized in vitro using the T7 MegaScript transcription kit (Ambion, Austin, Tex.) according to manufacturer's directions. In vitro transcripts of the cDNA were transfected into the human hepatoma cell line, HUH-7. […] Resulting cell lines were characterized for positive and negative strand RNA production and protein production over time. […]\n(§2) HCV Replicon Luciferase Reporter Assay\n(§3) HCV replicon luciferase assays were developed to monitor the inhibitory effects of compounds described in the disclosure on HCV genotypes 1a and 1b viral replication. HUH-7 cells, constitutively expressing the HCV replicon, were grown in Dulbecco's Modified Eagle Media (DMEM) (Gibco-BRL) containing 10% Fetal calf serum (FCS) (Sigma) and 1 mg/mL G418 (Gibco-BRL). Compounds were serially diluted 3 folds in DMSO for a twenty-point titration and subsequently transferred to sterile 384-well tissue-culture treated plates (Corning cat #3571). The plates were then seeded with 50 μL of cells at a density of 3.0×10^3 cells/well in DMEM containing 4% FCS (final DMSO concentration at 0.5%). After 3 days incubation at 37° C., cells were analyzed for Renilla Luciferase activity using the EnduRen as substrate (Promega cat #E6485). The EnduRen substrate was diluted in DMEM and then added to the plates to a final concentration of 7.5 μM. The plates were incubated for 2 hrs at 37° C. and then read immediately for 30 seconds with Viewlux Imager (PerkinElmer) using a luminescence program. To assess cytotoxicity of compounds, CC50 values were generated by multiplexing the EnduRen-containing plates with Cell Titer-Blue (Promega, cat # G8082). Cell-Titer Blue (3 μL) was added to each well and incubated for 8 hrs at 37° C. The fluorescence signal from each well was read, with an excitation wavelength at 525/10 nm and an emission wavelength of 598/10 nm, using the Viewlux Imager.\n(§4) The EC50 values for compounds were calculated by using a four-parameter logistic equation: y=A+((B−A)/(1+((C/x)^D))), where A and B denotes minimal and maximal % inhibition, respectively, C is the EC50, D is the hill slope and x represents compound concentration."}, "[2]": {"system": "HCV genotype 1a (H77 strain) replicon in HUH-7 cells", "assay": "HCV replicon luciferase reporter assay, genotype 1a", "assay_type": "cell-based", "settings": "3 days incubation", "from_the_text": "as §1\nAn HCV replicon whole cell system was established as described by Lohmann V, Korner F, Koch J, Herian U, Theilmann L, Bartenschlager R., Science 285(5424):110-3 (1999) and modified to introduce a luciferase reporter, as first described by Krieger et al (Krieger N, Lohmann V, and Bartenschlager R, J. Virol. 75(10):4614-4624 (2001)). CDNA encoding a humanized form of the Renilla luciferase gene and a linker sequence fused directly to the 3′-end of the luciferase gene were introduced into the replicon construct using an Asc1 restriction site located in core, directly upstream of the neomycin marker gene. The adaptive mutation at position 1179 (serine to isoleucine) was also introduced (Blight K J, Kolykhalov, A A, Rice, C M, Science 290(5498):1972-1974). A stable cell line constitutively expressing this HCV replicon construct was generated by first linearizing plasmid DNAs with ScaI. RNA transcripts were synthesized in vitro using the T7 MegaScript transcription kit (Ambion, Austin, Tex.) according to manufacturer's directions. In vitro transcripts of the cDNA were transfected into the human hepatoma cell line, HUH-7. […] Resulting cell lines were characterized for positive and negative strand RNA production and protein production over time.\nA stable HCV replicon luciferase reporter cell line representing the genotype 1a H77 strain (Yanagi M, Purcell R H, Emerson S U, et al. Transcripts from a single full-length cDNA clone of hepatitis C virus are infectious when directly transfected into the liver of a chimpanzee. Proc Natl Acad Sci USA 1997; 94(16):8738-8743) was generated as described previously for the genotype 1b(Con1) replicon luciferase cell line. The replicon construct was modified by introducing mutations were introduced into the genes encoding the NS3 helicase domain (proline replaced by leucine at position 1496) and NSSA (serine to isoleucine at position 2204) to improve replication in cell culture.\nas §2, §3, §4"}, "[3]": {"settings": "HCV genotype 1b replicon luciferase, read-out: LE_1b (EC50, range)"}, "[4]": {"settings": "HCV genotype 1a replicon luciferase, read-out: LE_1a (EC50, range)"}, "[5]": {"settings": "Hepatitis C virus, Huh-7, 72 h, HCV genotype 1b replicon luciferase assay, range class, read-out: LE_1b (EC50, range)"}, "[6]": {"settings": "Hepatitis C virus, Huh-7, 72 h, HCV genotype 1a replicon luciferase assay, range class, read-out: LE_1a (EC50, range)"}},
  "note": "Read-outs that look alike come from different tables or passages of the source.",
  "data": [
    {"molecule": "1,1,1-trifluoro-2-methylpropan-2-yl((2R,6S,7R,9R,13aS,14aR,16aS,Z)-14a-((cyclopropylsulfonyl)carbamoyl)-2-((3,7-dimethoxy-2-(trifluoromethyl)quinoxalin-6-yl)oxy)-7-ethyl-9-methyl-5,16-dioxo-1,2,3,5,6,7,8,9,10,11,13a,14,14a,15,16,16a-hexadecahydrocyclopropa[e]pyrrolo[1,2-a][1,4]diazacyclopentadecin-6-yl)carbamate [Compound 4355]", "values": [
      {"measurement": "EC50", "setting": "[1]; [3]", "value": "5.01 to 35", "unit": "nM"},
      {"measurement": "EC50", "setting": "[2]; [4]", "value": "5.01 to 35", "unit": "nM"}
    ]},
    {"molecule": "3,3-difluoro-2-methylbutan-2-yl((2R,6S,7R,9R,13aS,14aR,16aS,Z)-7-ethyl-2-((2-(3-fluoro-4-isopropoxyphenyl)-7-methoxyquinolin-4-yl)oxy)-9-methyl-14a-(((1-methylcyclopropyl)sulfonyl)carbamoyl)-5,16-dioxo-1,2,3,5,6,7,8,9,10,11,13a,14,14a,15,16,16a-hexadecahydrocyclopropa[e]pyrrolo[1,2-a][1,4]diazacyclopentadecin-6-yl)carbamate [Compound 5550]", "values": [
      {"measurement": "EC50", "setting": "[1]; [3]", "value": "1.01 to 5", "unit": "nM"},
      {"measurement": "EC50", "setting": "[2]; [4]", "value": "0.51 to 1", "unit": "nM"}
    ]},
    {"molecule": "CC1CC/C=C\\[C@@H]2C[C@@]2(C(=O)NS(=O)(=O)C2(CF)CC2)NC(=O)[C@@H]2C[C@@H](Oc3nccc4c5c(ccc34)OCCO5)CN2C(=O)[C@@H](NC(=O)OC(C)(C)C)[C@H](C)C1", "note": "(stereo in doubt) [Compound 5321, tert-butyl ((2R,6S,7R,9R,13aS,14aR,16aS,Z)-2-((2,3-dihydro-[1,4]dioxino[2,3-f]isoquinolin-7-yl)oxy)-14a-(((1-(fluoromethyl)cyclopropyl)sulfonyl)carbamoyl)-7,9-dimethyl-5,16-dioxo-1,2,3,5,6,7,8,9,10,11,13a,14,14a,15,16,16a-hexadecahydrocyclopropa[e]pyrrolo[1,2-a][1,4]diazacyclopentadecin-6-yl)carbamate]", "values": [
      {"measurement": "EC50", "setting": "[1]; Hepatitis C virus, Huh-7, 72 h, HCV genotype 1b replicon luciferase, read-out: LE_1b (EC50, range)", "value": "< 5.46", "unit": "nM"},
      {"measurement": "EC50", "setting": "[2]; Hepatitis C virus, Huh-7, 72 h, HCV genotype 1a replicon luciferase, read-out: LE_1a (EC50, range)", "value": "< 5.46", "unit": "nM"}
    ]},
    {"molecule": "COc1ccc2c(O[C@@H]3C[C@H]4C(=O)N[C@]5(C(=O)NS(=O)(=O)C6CC6)C[C@H]5/C=C\\CC[C@@H](C)C[C@@H](C)[C@H](NC(=O)OC(C)(C)C(F)(F)F)C(=O)N4C3)nccc2c1", "note": "[Compound 7, 1,1,1-trifluoro-2-methylpropan-2-yl((2R,6S,7R,9R,13aS,14aR,16aS,Z)-14a-((cyclopropylsulfonyl)carbamoyl)-2-((6-methoxyisoquinolin-1-yl)oxy)-7,9-dimethyl-5,16-dioxo-1,2,3,5,6,7,8,9,10,11,13a,14,14a,15,16,16a-hexadecahydrocyclopropa[e]pyrrolo[1,2-a][1,4]diazacyclopentadecin-6-yl)carbamate]", "values": [
      {"measurement": "EC50", "setting": "[1]; [5]", "value": "< 5.46", "unit": "nM"},
      {"measurement": "EC50", "setting": "[2]; [6]", "value": "< 5.46", "unit": "nM"}
    ]},
    {"molecule": "COc1ccc2c(O[C@@H]3C[C@H]4C(=O)N[C@]5(C(=O)NS(=O)(=O)C6(F)CC6)C[C@H]5/C=C\\CC[C@@H](C)C[C@@H](C)[C@H](NC(=O)OC(C)(C)C)C(=O)N4C3)nccc2c1", "note": "[Compound 9, tert-butyl ((2R,6S,7R,9R,13aS,14aR,16aS,Z)-14a-(((1-fluorocyclopropyl)sulfonyl)carbamoyl)-2-((6-methoxyisoquinolin-1-yl)oxy)-7,9-dimethyl-5,16-dioxo-1,2,3,5,6,7,8,9,10,11,13a,14,14a,15,16,16a-hexadecahydrocyclopropa[e]pyrrolo[1,2-a][1,4]diazacyclopentadecin-6-yl)carbamate]", "values": [
      {"measurement": "EC50", "setting": "[1]; [5]", "value": "< 5.46", "unit": "nM"},
      {"measurement": "EC50", "setting": "[2]; [6]", "value": "< 5.46", "unit": "nM"}
    ]},
    {"molecule": "COc1ccc2c(O[C@@H]3C[C@H]4C(=O)N[C@]5(C(=O)NS(=O)(=O)C6(F)CC6)C[C@H]5/C=C\\CC[C@H](C)C[C@@H](C)[C@H](NC(=O)OC(C)(C)C)C(=O)N4C3)nccc2c1", "note": "[Compound 10, tert-butyl ((2R,6S,7R,9S,13aS,14aR,16aS,Z)-14a-(((1-fluorocyclopropyl)sulfonyl)carbamoyl)-2-((6-methoxyisoquinolin-1-yl)oxy)-7,9-dimethyl-5,16-dioxo-1,2,3,5,6,7,8,9,10,11,13a,14,14a,15,16,16a-hexadecahydrocyclopropa[e]pyrrolo[1,2-a][1,4]diazacyclopentadecin-6-yl)carbamate]", "values": [
      {"measurement": "EC50", "setting": "[1]; [5]", "value": "< 5.46", "unit": "nM"},
      {"measurement": "EC50", "setting": "[1]; Hepatitis C virus, Huh-7, 72 h, HCV genotype 1b replicon luciferase assay, read-out: LE_1b (EC50)", "value": 0.8, "unit": "nM"},
      {"measurement": "EC50", "setting": "[2]; [6]", "value": "< 5.46", "unit": "nM"},
      {"measurement": "EC50", "setting": "[2]; Hepatitis C virus, Huh-7, 72 h, HCV genotype 1a replicon luciferase assay, read-out: LE_1a (EC50)", "value": 3.08, "unit": "nM"}
    ]},
    {"molecule": "COc1ccc2c(O[C@@H]3C[C@H]4C(=O)N[C@]5(C(=O)NS(=O)(=O)C6(F)CC6)C[C@H]5/C=C\\CC[C@@H](C)C[C@@H](C)[C@H](NC(=O)OC(C)(C)C(F)(F)F)C(=O)N4C3)nccc2c1", "note": "[Compound 11]", "values": [
      {"measurement": "EC50", "setting": "[1]; Hepatitis C virus, GETYPE1B, Huh-7, 72 h, HCV genotype 1b replicon luciferase assay, range class, read-out: LE_1b (EC50, range)", "value": "< 5.46", "unit": "nM"},
      {"measurement": "EC50", "setting": "[2]; Hepatitis C virus, GETYPE1A, Huh-7, 72 h, HCV genotype 1a replicon luciferase assay, range class, read-out: LE_1a (EC50, range)", "value": "< 5.46", "unit": "nM"}
    ]},
    {"molecule": "COCCn1nc(O[C@@H]2C[C@H]3C(=O)N[C@]4(C(=O)NS(=O)(=O)C5CC5)C[C@H]4/C=C\\CC[C@H](C)C[C@@H](C)[C@H](NC(=O)OC(C)(C)C(C)(F)F)C(=O)N3C2)c2ccccc2c1=O", "note": "[Compound 1023, 3,3-difluoro-2-methylbutan-2-yl((2R,6S,7R,9S,13aS,14aR,16aS,Z)-14a-((cyclopropylsulfonyl)carbamoyl)-2-((3-(2-methoxyethyl)-4-oxo-3,4-dihydrophthalazin-1-yl)oxy)-7,9-dimethyl-5,16-dioxo-1,2,3,5,6,7,8,9,10,11,13a,14,14a,15,16,16a-hexadecahydrocyclopropa[e]pyrrolo[1,2-a][1,4]diazacyclopentadecin-6-yl)carbamate]", "values": [
      {"measurement": "EC50", "setting": "[1]; [5]", "value": "> 87.4", "unit": "nM"}
    ]},
    {"molecule": "COc1ccc2c(O[C@@H]3C[C@H]4C(=O)N[C@]5(C(=O)NS(=O)(=O)C6(CF)CC6)C[C@H]5/C=C\\CC[C@H](C)C[C@@H](C)[C@H](NC(=O)OC(C)(C)C(C)(F)F)C(=O)N4C3)nccc2c1", "note": "[Compound 1142, 3,3-difluoro-2-methylbutan-2-yl((2R,6S,7R,9S,13aS,14aR,16aS,Z)-14a-(((1-(fluoromethyl)cyclopropyl)sulfonyl)carbamoyl)-2-((6-methoxyisoquinolin-1-yl)oxy)-7,9-dimethyl-5,16-dioxo-1,2,3,5,6,7,8,9,10,11,13a,14,14a,15,16,16a-hexadecahydrocyclopropa[e]pyrrolo[1,2-a][1,4]diazacyclopentadecin-6-yl)carbamate]", "values": [
      {"measurement": "EC50", "setting": "[1]; [5]", "value": "< 5.46", "unit": "nM"}
    ]}
  ]
}
